From the kinase profiling compilation of Christmann-Franck et al. (2016)

Experiments:
Assay in all cases: radiometric filter-binding kinase assay, Kinase HotSpot
Details in all cases: compound 0.5 µM; ATP 10 µM
PRKX (human) = PRKX (human) (UniProt P51817)
CLK1 (human) = CLK1 (human) (UniProt P49759)
PDPK1 (human) = PDPK1 (human) (UniProt O15530)
TAOK2 (human) = TAOK2 (human) (UniProt Q9UL54)
DSTYK (human) = DSTYK (human) (UniProt Q6XUX3)
AURKC (human) = AURKC (human) (UniProt Q9UQB9)
ZAP70 (human) = ZAP70 (human) (UniProt P43403)
MAPK13 (human) = MAPK13 (human) (UniProt O15264)
MAP3K3 (human) = MAP3K3 (human) (UniProt Q99759)
MARK4 (human) = MARK4 (human) (UniProt Q96L34)
MARK4 (human), sequence (Q96L34 whole entry, looked up): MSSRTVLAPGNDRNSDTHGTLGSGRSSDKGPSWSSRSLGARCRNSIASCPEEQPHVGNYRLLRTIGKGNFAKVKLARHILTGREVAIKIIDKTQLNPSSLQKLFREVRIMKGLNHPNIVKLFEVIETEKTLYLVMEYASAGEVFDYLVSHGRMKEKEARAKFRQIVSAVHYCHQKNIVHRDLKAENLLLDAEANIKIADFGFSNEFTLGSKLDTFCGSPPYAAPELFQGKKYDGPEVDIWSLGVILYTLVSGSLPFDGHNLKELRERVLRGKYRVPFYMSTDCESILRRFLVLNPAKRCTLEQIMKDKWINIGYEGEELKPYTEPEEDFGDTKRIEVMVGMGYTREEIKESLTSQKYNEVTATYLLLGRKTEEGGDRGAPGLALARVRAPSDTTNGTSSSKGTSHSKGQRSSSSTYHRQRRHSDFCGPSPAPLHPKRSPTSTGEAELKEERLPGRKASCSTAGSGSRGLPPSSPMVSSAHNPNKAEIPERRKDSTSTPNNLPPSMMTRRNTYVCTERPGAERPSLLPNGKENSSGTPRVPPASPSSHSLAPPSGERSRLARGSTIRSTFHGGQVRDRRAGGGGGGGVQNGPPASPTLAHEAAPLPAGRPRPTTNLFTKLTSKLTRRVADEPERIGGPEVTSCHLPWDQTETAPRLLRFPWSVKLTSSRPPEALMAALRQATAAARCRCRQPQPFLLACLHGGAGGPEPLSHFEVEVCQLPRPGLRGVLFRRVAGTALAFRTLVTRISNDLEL

MST4 (human) = MST4 (human) (UniProt Q9P289)
RIPK2 (human) = RIPK2 (human) (UniProt O43353)
PRKCD (human) = PRKCD (human) (UniProt Q05655)
PLK3 (human) = PLK3 (human) (UniProt Q9H4B4)
STK11 (human) = STK11 (human) (UniProt Q15831)
MAPKAPK5 (human) = MAPKAPK5 (human) (UniProt Q8IW41)
PTK2 (human) = PTK2 (human) (UniProt Q05397)
PTK2 (human), sequence (Q05397 whole entry, looked up): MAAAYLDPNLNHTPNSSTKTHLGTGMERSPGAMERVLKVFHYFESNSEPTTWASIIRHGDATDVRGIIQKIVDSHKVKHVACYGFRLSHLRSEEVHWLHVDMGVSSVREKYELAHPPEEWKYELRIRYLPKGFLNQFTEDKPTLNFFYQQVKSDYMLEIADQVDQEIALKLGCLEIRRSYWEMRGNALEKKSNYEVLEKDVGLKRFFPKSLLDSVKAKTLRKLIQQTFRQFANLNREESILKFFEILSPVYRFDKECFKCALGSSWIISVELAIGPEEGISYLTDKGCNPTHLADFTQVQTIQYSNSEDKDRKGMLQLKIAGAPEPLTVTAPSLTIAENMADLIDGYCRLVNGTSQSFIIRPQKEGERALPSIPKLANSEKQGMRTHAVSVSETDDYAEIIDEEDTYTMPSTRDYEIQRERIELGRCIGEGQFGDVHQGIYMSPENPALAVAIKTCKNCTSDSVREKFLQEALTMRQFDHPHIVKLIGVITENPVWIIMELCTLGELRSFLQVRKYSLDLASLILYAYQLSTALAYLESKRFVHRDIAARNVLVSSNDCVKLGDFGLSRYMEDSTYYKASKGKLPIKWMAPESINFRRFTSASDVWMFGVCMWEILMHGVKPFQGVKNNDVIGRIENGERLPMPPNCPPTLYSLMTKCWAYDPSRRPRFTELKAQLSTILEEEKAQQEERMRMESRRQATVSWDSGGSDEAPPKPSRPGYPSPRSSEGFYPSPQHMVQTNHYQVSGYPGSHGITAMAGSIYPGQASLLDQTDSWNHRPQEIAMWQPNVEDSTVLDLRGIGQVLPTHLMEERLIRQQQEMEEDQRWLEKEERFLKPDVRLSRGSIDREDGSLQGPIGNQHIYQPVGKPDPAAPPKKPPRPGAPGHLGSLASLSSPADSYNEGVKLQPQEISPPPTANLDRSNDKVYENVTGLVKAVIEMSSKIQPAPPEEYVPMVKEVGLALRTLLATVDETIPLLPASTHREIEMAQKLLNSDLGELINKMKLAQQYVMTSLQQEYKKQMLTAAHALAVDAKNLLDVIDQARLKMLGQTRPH

DYRK4 (human) = DYRK4 (human) (UniProt Q9NR20)
MAP3K2 (human) = MAP3K2 (human) (UniProt Q9Y2U5)
MAP3K2 (human), sequence (Q9Y2U5 whole entry, looked up): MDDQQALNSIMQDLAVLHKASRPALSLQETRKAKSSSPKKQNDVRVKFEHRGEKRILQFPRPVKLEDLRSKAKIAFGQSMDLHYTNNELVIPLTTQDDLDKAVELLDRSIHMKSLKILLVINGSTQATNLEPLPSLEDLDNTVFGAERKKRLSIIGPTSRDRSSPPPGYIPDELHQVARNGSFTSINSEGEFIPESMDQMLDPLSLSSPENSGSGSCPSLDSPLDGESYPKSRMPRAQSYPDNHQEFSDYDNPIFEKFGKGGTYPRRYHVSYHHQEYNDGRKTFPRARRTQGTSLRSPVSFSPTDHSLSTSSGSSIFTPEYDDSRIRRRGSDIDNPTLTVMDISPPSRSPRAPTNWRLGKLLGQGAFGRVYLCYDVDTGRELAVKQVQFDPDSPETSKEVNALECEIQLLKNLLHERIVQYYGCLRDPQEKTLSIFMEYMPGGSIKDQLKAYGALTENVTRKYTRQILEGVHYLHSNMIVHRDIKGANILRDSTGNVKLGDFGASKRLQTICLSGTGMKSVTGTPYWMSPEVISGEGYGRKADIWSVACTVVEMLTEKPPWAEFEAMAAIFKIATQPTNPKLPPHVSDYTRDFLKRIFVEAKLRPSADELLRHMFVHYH

TSSK2 (human) = TSSK2 (human) (UniProt Q96PF2)
TSSK2 (human), sequence (Q96PF2 whole entry, looked up): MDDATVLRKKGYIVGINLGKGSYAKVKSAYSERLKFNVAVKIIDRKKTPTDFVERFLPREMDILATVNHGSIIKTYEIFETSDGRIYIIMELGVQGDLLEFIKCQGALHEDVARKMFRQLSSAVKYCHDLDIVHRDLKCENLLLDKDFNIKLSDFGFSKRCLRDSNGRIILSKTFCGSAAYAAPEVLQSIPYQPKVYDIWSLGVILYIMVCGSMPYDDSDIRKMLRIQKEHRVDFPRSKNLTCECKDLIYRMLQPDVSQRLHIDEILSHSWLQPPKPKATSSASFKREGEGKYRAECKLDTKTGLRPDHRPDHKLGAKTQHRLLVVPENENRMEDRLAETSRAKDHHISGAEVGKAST

MERTK (human) = MERTK (human) (UniProt Q12866)
IKBKB (human) = IKBKB (human) (UniProt O14920)
RET (human) = RET (human) (UniProt P07949)
CAMK1G (human) = CAMK1G (human) (UniProt Q96NX5)
MINK1 (human) = MINK1 (human) (UniProt Q8N4C8)
MINK1 (human), sequence (Q8N4C8 whole entry, looked up): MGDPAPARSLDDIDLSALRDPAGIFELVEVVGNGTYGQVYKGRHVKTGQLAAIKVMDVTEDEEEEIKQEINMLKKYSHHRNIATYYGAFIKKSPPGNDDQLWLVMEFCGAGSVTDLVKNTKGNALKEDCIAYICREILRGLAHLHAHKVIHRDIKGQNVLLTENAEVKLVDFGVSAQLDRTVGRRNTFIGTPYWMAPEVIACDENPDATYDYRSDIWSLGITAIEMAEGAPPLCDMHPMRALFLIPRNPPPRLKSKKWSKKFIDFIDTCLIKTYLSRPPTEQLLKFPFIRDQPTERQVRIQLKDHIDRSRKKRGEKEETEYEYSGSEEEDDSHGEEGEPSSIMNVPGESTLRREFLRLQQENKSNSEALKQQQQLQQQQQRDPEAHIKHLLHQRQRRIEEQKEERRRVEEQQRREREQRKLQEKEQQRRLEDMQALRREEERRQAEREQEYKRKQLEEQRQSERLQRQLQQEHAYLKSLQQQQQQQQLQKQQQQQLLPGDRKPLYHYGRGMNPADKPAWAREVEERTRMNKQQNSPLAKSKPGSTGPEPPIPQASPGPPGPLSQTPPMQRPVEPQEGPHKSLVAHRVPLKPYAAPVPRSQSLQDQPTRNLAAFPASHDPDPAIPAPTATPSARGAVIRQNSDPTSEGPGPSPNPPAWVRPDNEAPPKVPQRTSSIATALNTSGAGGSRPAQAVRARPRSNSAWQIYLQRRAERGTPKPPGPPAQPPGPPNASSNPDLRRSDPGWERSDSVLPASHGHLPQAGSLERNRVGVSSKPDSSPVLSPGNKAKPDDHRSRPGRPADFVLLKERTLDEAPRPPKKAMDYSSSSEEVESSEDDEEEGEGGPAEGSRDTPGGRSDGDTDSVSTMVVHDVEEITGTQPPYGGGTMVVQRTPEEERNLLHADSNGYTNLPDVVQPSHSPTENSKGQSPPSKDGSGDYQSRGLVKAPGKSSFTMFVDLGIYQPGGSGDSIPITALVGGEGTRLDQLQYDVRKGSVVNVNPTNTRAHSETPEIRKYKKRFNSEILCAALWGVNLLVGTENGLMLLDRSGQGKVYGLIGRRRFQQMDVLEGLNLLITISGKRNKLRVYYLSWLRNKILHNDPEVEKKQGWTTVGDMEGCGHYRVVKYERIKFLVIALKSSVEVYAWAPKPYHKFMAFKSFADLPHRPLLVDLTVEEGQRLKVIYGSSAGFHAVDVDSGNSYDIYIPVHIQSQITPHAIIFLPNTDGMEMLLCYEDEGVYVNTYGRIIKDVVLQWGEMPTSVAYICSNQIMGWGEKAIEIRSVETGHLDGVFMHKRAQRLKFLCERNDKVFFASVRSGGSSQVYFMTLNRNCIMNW

MAP4K5 (human) = MAP4K5 (human) (UniProt Q9Y4K4)
RPS6KA6 KD1 KD2 (human) = RPS6KA6 KD1 KD2 (human) (UniProt Q9UK32)
PDGFRB (human) = PDGFRB (human) (UniProt P09619)
CDC42BPB (human) = CDC42BPB (human) (UniProt Q9Y5S2)
FRK (human) = FRK (human) (UniProt P42685)
LCK (human) = LCK (human) (UniProt P06239)
TGFBR1 (human) = TGFBR1 (human) (UniProt P36897)
GSK3B (human) = GSK3B (human) (UniProt P49841)
PAK2 (human) = PAK2 (human) (UniProt Q13177)
EPHB2 (human) = EPHB2 (human) (UniProt P29323)
RPS6KA5 KD2 (human) = RPS6KA5 KD2 (human) (UniProt O75582)
MAP3K7 TAB1 (human) = MAP3K7 TAB1 (human) (UniProt O43318+Q15750)
PRKCZ (human) = PRKCZ (human) (UniProt Q05513)
IGF1R (human) = IGF1R (human) (UniProt P08069)
LIMK1 (human) = LIMK1 (human) (UniProt P53667)
BTK (human) = BTK (human) (UniProt Q06187)
TXK (human) = TXK (human) (UniProt P42681)

PDPK1 (human), sequence (O15530 whole entry, looked up): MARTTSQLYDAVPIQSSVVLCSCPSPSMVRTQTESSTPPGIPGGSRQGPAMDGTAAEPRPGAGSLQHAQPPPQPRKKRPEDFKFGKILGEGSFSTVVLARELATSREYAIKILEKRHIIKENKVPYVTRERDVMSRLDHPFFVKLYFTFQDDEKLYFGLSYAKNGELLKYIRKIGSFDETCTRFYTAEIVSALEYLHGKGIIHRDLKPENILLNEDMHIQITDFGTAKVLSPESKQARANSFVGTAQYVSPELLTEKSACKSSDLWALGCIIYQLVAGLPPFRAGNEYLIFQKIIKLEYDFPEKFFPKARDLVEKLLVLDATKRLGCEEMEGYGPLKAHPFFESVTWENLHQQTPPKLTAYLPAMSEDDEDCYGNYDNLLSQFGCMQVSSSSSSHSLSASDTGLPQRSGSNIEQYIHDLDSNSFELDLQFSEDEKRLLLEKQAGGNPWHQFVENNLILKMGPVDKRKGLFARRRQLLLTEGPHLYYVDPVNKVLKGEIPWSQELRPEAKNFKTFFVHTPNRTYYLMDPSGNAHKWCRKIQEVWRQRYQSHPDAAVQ
PRKX (human), sequence (P51817 whole entry, looked up): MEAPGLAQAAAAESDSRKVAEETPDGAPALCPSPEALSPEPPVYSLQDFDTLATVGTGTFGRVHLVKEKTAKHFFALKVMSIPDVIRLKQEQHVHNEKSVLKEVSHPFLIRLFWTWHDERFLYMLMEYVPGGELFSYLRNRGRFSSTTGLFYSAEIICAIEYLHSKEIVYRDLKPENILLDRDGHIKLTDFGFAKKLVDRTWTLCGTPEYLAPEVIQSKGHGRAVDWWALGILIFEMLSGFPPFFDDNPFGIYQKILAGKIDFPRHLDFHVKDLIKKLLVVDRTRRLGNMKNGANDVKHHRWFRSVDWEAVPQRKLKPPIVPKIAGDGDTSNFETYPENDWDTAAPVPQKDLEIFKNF

**Q.** For `c1ccc2c(-c3ccncc3)c[nH]c2c1`, which residual activity (PRKX (human)) is on record?
**A.** 54.3%

**Q.** What about the residual activity (CLK1 (human)) of the same molecule?
**A.** 105%

**Q.** And the residual activity (PDPK1 (human))?
**A.** 96.6%

**Q.** What about the residual activity (TAOK2 (human)) of the same molecule?
**A.** 92.1%

**Q.** What about the residual activity (DSTYK (human)) of the same molecule?
**A.** 95.9%

**Q.** And the residual activity (AURKC (human))?
**A.** 93.1%

**Q.** What about the residual activity (ZAP70 (human)) of the same molecule?
**A.** 105%

**Q.** And the residual activity (MAPK13 (human))?
**A.** 123%

**Q.** What about the residual activity (MAP3K3 (human)) of the same molecule?
**A.** 103%

**Q.** And the residual activity (MARK4 (human))?
**A.** 94.7%

**Q.** What about the residual activity (MST4 (human)) of the same molecule?
**A.** 104%

**Q.** And the residual activity (RIPK2 (human))?
**A.** 89.9%

**Q.** What about the residual activity (PRKCD (human)) of the same molecule?
**A.** 83.2%

**Q.** And the residual activity (PLK3 (human))?
**A.** 95.3%

**Q.** And the residual activity (STK11 (human))?
**A.** 90.7%

**Q.** What about the residual activity (MAPKAPK5 (human)) of the same molecule?
**A.** 96.1%

**Q.** And the residual activity (PTK2 (human))?
**A.** 97.7%

**Q.** And the residual activity (DYRK4 (human))?
**A.** 98.7%

**Q.** And the residual activity (MAP3K2 (human))?
**A.** 94.9%

**Q.** What about the residual activity (TSSK2 (human)) of the same molecule?
**A.** 96.9%

**Q.** And the residual activity (MERTK (human))?
**A.** 93%

**Q.** And the residual activity (IKBKB (human))?
**A.** 102%

**Q.** What about the residual activity (RET (human)) of the same molecule?
**A.** 97.3%

**Q.** And the residual activity (CAMK1G (human))?
**A.** 99%

**Q.** What about the residual activity (MINK1 (human)) of the same molecule?
**A.** 84.6%

**Q.** What about the residual activity (MAP4K5 (human)) of the same molecule?
**A.** 106%

**Q.** What about the residual activity (RPS6KA6 KD1 KD2 (human)) of the same molecule?
**A.** 112%

**Q.** And the residual activity (PDGFRB (human))?
**A.** 105%

**Q.** What about the residual activity (CDC42BPB (human)) of the same molecule?
**A.** 104%

**Q.** And the residual activity (FRK (human))?
**A.** 106%

**Q.** What about the residual activity (LCK (human)) of the same molecule?
**A.** 102%

**Q.** And the residual activity (TGFBR1 (human))?
**A.** 103%

**Q.** What about the residual activity (GSK3B (human)) of the same molecule?
**A.** 104%

**Q.** And the residual activity (PAK2 (human))?
**A.** 84%

**Q.** What about the residual activity (EPHB2 (human)) of the same molecule?
**A.** 114%

**Q.** What about the residual activity (RPS6KA5 KD2 (human)) of the same molecule?
**A.** 96.7%

**Q.** And the residual activity (MAP3K7 TAB1 (human))?
**A.** 95.5%

**Q.** What about the residual activity (PRKCZ (human)) of the same molecule?
**A.** 98.3%

**Q.** What about the residual activity (IGF1R (human)) of the same molecule?
**A.** 105%

**Q.** And the residual activity (LIMK1 (human))?
**A.** 92%

**Q.** And the residual activity (BTK (human))?
**A.** 104%

**Q.** What about the residual activity (TXK (human)) of the same molecule?
**A.** 104%

**Q.** Which results are given for `CS(=O)(=O)CCNCc1ccc(-c2ccc3ncnc(Nc4ccc(OCc5cccc(F)c5)c(Cl)c4)c3c2)o1`?
**A.** residual activity (PRKX (human)): 111%; residual activity (CLK1 (human)): 107%; residual activity (PDPK1 (human)): 86.4%; residual activity (TAOK2 (human)): 105%; residual activity (DSTYK (human)): 108%; residual activity (AURKC (human)): 90.9%; residual activity (ZAP70 (human)): 92.5%; residual activity (MAPK13 (human)): 91.1%; residual activity (MAP3K3 (human)): 110%; residual activity (MARK4 (human)): 104%; residual activity (MST4 (human)): 110%; residual activity (RIPK2 (human)): 110%; residual activity (PRKCD (human)): 103%; residual activity (PLK3 (human)): 105%; residual activity (STK11 (human)): 106%; residual activity (MAPKAPK5 (human)): 92.8%; residual activity (PTK2 (human)): 104%; residual activity (DYRK4 (human)): 103%; residual activity (MAP3K2 (human)): 123%; residual activity (TSSK2 (human)): 89.9%; residual activity (MERTK (human)): 95.4%; residual activity (IKBKB (human)): 81%; residual activity (RET (human)): 99.8%; residual activity (CAMK1G (human)): 102%; residual activity (MINK1 (human)): 111%; residual activity (MAP4K5 (human)): 109%; residual activity (RPS6KA6 KD1 KD2 (human)): 108%; residual activity (PDGFRB (human)): 92%; residual activity (CDC42BPB (human)): 95.7%; residual activity (FRK (human)): 104%; residual activity (LCK (human)): 94.2%; residual activity (TGFBR1 (human)): 101%; residual activity (GSK3B (human)): 103%; residual activity (PAK2 (human)): 102%; residual activity (EPHB2 (human)): 101%; residual activity (RPS6KA5 KD2 (human)): 98.3%; residual activity (MAP3K7 TAB1 (human)): 89%; residual activity (PRKCZ (human)): 79.7%; residual activity (IGF1R (human)): 87.4%; residual activity (LIMK1 (human)): 95.2%; residual activity (BTK (human)): 103%; residual activity (TXK (human)): 110%

**Q.** With `Cc1nc(-c2ccccc2)c(-c2ccncc2)o1` as the molecule, how does the residual activity (PRKX (human)) read?
**A.** 101%

**Q.** What about the residual activity (CLK1 (human)) of the same molecule?
**A.** 105%

**Q.** And the residual activity (PDPK1 (human))?
**A.** 96.9%

**Q.** And the residual activity (TAOK2 (human))?
**A.** 101%

**Q.** And the residual activity (DSTYK (human))?
**A.** 91%

**Q.** And the residual activity (AURKC (human))?
**A.** 95.7%

**Q.** What about the residual activity (ZAP70 (human)) of the same molecule?
**A.** 98.8%

**Q.** What about the residual activity (MAPK13 (human)) of the same molecule?
**A.** 114%

**Q.** What about the residual activity (MAP3K3 (human)) of the same molecule?
**A.** 101%

**Q.** And the residual activity (MARK4 (human))?
**A.** 103%

**Q.** What about the residual activity (MST4 (human)) of the same molecule?
**A.** 114%

**Q.** And the residual activity (RIPK2 (human))?
**A.** 87.4%

**Q.** And the residual activity (PRKCD (human))?
**A.** 96.2%

**Q.** And the residual activity (PLK3 (human))?
**A.** 95.4%

**Q.** And the residual activity (STK11 (human))?
**A.** 98.4%

**Q.** And the residual activity (MAPKAPK5 (human))?
**A.** 99.2%

**Q.** What about the residual activity (PTK2 (human)) of the same molecule?
**A.** 106%

**Q.** And the residual activity (DYRK4 (human))?
**A.** 91.2%

**Q.** And the residual activity (MAP3K2 (human))?
**A.** 102%

**Q.** What about the residual activity (TSSK2 (human)) of the same molecule?
**A.** 90.1%

**Q.** What about the residual activity (MERTK (human)) of the same molecule?
**A.** 85.6%

**Q.** What about the residual activity (IKBKB (human)) of the same molecule?
**A.** 105%

**Q.** And the residual activity (RET (human))?
**A.** 97.5%

**Q.** And the residual activity (CAMK1G (human))?
**A.** 92.8%

**Q.** What about the residual activity (MINK1 (human)) of the same molecule?
**A.** 97.9%

**Q.** What about the residual activity (MAP4K5 (human)) of the same molecule?
**A.** 96.2%

**Q.** And the residual activity (RPS6KA6 KD1 KD2 (human))?
**A.** 115%

**Q.** And the residual activity (PDGFRB (human))?
**A.** 109%

**Q.** And the residual activity (CDC42BPB (human))?
**A.** 101%

**Q.** What about the residual activity (FRK (human)) of the same molecule?
**A.** 103%

**Q.** What about the residual activity (LCK (human)) of the same molecule?
**A.** 99.7%

**Q.** What about the residual activity (TGFBR1 (human)) of the same molecule?
**A.** 102%

**Q.** What about the residual activity (GSK3B (human)) of the same molecule?
**A.** 105%

**Q.** What about the residual activity (PAK2 (human)) of the same molecule?
**A.** 82.3%

**Q.** What about the residual activity (EPHB2 (human)) of the same molecule?
**A.** 99.8%

**Q.** And the residual activity (RPS6KA5 KD2 (human))?
**A.** 107%

**Q.** And the residual activity (MAP3K7 TAB1 (human))?
**A.** 93.6%

**Q.** What about the residual activity (PRKCZ (human)) of the same molecule?
**A.** 103%

**Q.** And the residual activity (IGF1R (human))?
**A.** 99.9%

**Q.** And the residual activity (LIMK1 (human))?
**A.** 95.5%

**Q.** What about the residual activity (BTK (human)) of the same molecule?
**A.** 98.3%

**Q.** And the residual activity (TXK (human))?
**A.** 99.4%
